Drawing on a melting point compilation (Tetko et al.), this text covers melting point for 62 compounds.

Each structure is given as a SMILES string.

On to `Nc1c(C(=O)c2cccs2)oc2ccccc12`, for which the melting point (in general, the temperature of the solid-liquid transition) fell in the range of 173 to 175 °C.

In the case of `COc1ccccc1-c1cccc(N)c1`, the melting point was in the range of 66 to 68 °C.

`CCc1ccc(C(N)=NO)cc1` gave a melting point of 160 to 162 °C.

The compound `N#Cc1ccc(N2CCN(c3ccccc3)CC2)nc1` displayed a melting point of 131 to 133 °C.

The compound `COC(=O)c1ccc(CBr)cc1F` came in with a melting point of 74 to 76 °C.

In the case of `NCCc1ccc(S(=O)(=O)N2CCCCC2)s1`, the melting point was 74 to 76 °C.

Compound `COCc1c(C(=O)O)oc2ccccc12` gave a melting point of 119 to 121 °C.

As to `Cc1cc(Br)c2ccccc2c1N`, the melting point lay in the range of 79 to 81 °C.

Turning to `NC(=O)c1coc2ccccc12`, the melting point lay in the range of 144 to 146 °C.

Consider `Nc1cc2c(cc1N)OCCO2`, for which the melting point was in the range of 124 to 126 °C.

As for `O=C(O)C1(Cc2ccccc2)CC1`, the melting point lay in the range of 102 to 104 °C.

In the case of `N#Cc1ccnc(-n2ccnc2)c1`, the melting point fell in the range of 148 to 150 °C.

As to `Cc1noc(S)n1`, the melting point was 123 to 125 °C.

With `COCC(=O)Nc1ccc(O)cc1`, the melting point lay in the range of 139 to 141 °C.

Regarding `Oc1cccc(-c2nnc3n2CCCCC3)c1`, the melting point lay within 244 to 246 °C.

For `COCCCn1cc(C(=O)c2cc(F)ccc2O)cc(C#N)c1=O`, the melting point was in the range of 126 to 128 °C.

Take `CCC(C)C(C(=O)O)c1ccccc1` (configuration not stated): the melting point lay in the range of 50 to 52 °C.

`N#CCC(=O)c1c[nH]c2cc(F)ccc12`: the melting point was in the range of 265 to 267 °C.

`COc1ccc(C(=O)c2ccc(F)cc2)cc1` registered a melting point of 90 to 92 °C.

As to `Brc1csc(Br)n1`, the melting point was 80 to 84 °C.

As to `CC(=O)Nc1cccc(S(=O)(=O)Cl)c1`, the melting point fell in the range of 78 to 80 °C.

Regarding `CC(NC(=O)CCl)C1CC2CCC1C2` (configuration not stated), the melting point was in the range of 87 to 89 °C.

`O=C(O)c1cc(Cl)cc(S(=O)(=O)Cl)c1F` gave a melting point of 162 to 164 °C.

For the compound `O=C(NCCO)c1ccc(O)cc1`, the melting point lay in the range of 155 to 157 °C.

The compound `O=C(O)Cc1csc(-c2cccs2)n1` registered a melting point of 97 to 99 °C.

Consider `Cc1cc(N)n(-c2ccccn2)n1`, for which the melting point lay within 102 to 104 °C.

The compound `Cc1cc(NC(=O)c2ccccc2I)sc1C(=O)O` had a melting point of 202 to 204 °C.

In turn, `CC(Cl)C(=O)NCC1CCCCC1` (configuration not stated) gave a melting point of 83 to 85 °C.

In turn, `CC(C)(C(=O)O)c1ccc(N)cc1` came in with a melting point of 165 to 167 °C.

In turn, `CC(C)Sc1ccc(Cl)nn1` returned a melting point of 56 to 58 °C.

For the compound `COc1ccc(NS(=O)(=O)c2ccc(O)c(N)c2)cc1`, the melting point fell in the range of 213 to 215 °C.

As for `CCC(Br)C(=O)Nc1cc(C)on1` (configuration not stated), the melting point was in the range of 103 to 105 °C.

`COc1ccc(C(=O)CC(C)(C)C(=O)O)cc1` showed a melting point of 166 to 168 °C.

The compound `Nc1nc(-c2ccc(Cl)s2)cs1` came in with a melting point of 98 to 100 °C.

On to `CC(=O)CCc1ccc(OCC(=O)O)cc1`, for which the melting point was 106 to 108 °C.

For the compound `Cc1nnc(-c2ccccc2F)o1`, the melting point fell in the range of 37 to 39 °C.

For the compound `Nc1cc(S(=O)(=O)NC2CC2)c(Cl)cc1F`, the melting point was 120 to 122 °C.

For the compound `Clc1ccc(-c2noc(Cl)n2)cc1`, the melting point was 59 to 61 °C.

On to `NC(Cc1cccs1)=NO`, for which the melting point is 79 to 82 °C.

As for `CC(C)c1cc(C(=O)O)nn1-c1ccccc1`, the melting point is 137 to 139 °C.

`O=C(O)CCOc1ccc2ccccc2c1` gave a melting point of 66 to 68 °C.

Regarding `CCOc1ccccc1C(=O)CBr`, the melting point was 74 to 76 °C.

For the compound `CS(=O)(=O)N1CCCC(CCl)C1` (configuration not stated), the melting point was in the range of 64 to 66 °C.

With `CC(C)(C)NC(=O)NC(=O)CCl`, the melting point was in the range of 109 to 112 °C.

`COc1ccc(O)c(C(C)(C)C)c1` showed a melting point of 61 to 63 °C.

The compound `Cc1ccc(C)c2c(C)c(C(=O)O)oc12` returned a melting point of 239 to 241 °C.

In turn, `Cc1nc(Cl)sc1C(=O)O` returned a melting point of 149 to 151 °C.

For `CCOC(=O)c1nc2cc(Cl)ncn2n1`, the melting point fell in the range of 194 to 196 °C.

The compound `O=C(O)C(Cc1c[nH]c2ccccc12)NS(=O)(=O)c1ccc(Cl)c(C(F)(F)F)c1` (configuration not stated) showed a melting point of 185 to 187 °C.

Compound `Cc1cc(C)c2cc(C(=O)O)sc2n1` registered a melting point of 198 to 200 °C.

As for `Cc1cccc(-c2noc(S)n2)c1`, the melting point was 119 to 121 °C.

In the case of `CC1CN(S(=O)(=O)c2cccc(C(=O)O)c2)CC(C)O1` (configuration not stated), the melting point was 188 to 190 °C.

`CCn1ncc(C(=O)O)c1C(F)(F)F` returned a melting point of 136 to 138 °C.

Compound `Cc1c(C(=O)O)cnn1C1CCS(=O)(=O)C1` (configuration not stated) yielded a melting point of 249 to 251 °C.

`O=C(CCCc1ccccc1)Cc1ccc(Cl)cc1` came in with a melting point of 31 to 33 °C.

`O=C(O)c1cccc(S(=O)(=O)NCc2ccccc2)c1` showed a melting point of 225 to 227 °C.

In turn, `O=C(O)c1cc(-c2cccs2)nc2ccccc12` showed a melting point of 199 to 201 °C.

`NCc1ccc(-n2cnc3ccccc32)nc1`: the melting point is 97 to 99 °C.

`Cc1noc(-c2ccc(C)c([N+](=O)[O-])c2)n1`: the melting point is 100 to 102 °C.

`Cc1ccccc1CC(N)=NO` displayed a melting point of 121 to 123 °C.

Compound `N#CCC1=NC(=O)CS1` registered a melting point of 183 to 185 °C.

`COc1cc(C(=O)O)ccc1OCC(C)C`: the melting point was 145 to 147 °C.
